Experimental data: patent US11540518B2, “Fungicidal oxadiazoles” (FMC Corporation, priority 2017, dated 2023)

These molecules were tested on Puccinia recondita f. sp. tritici (assay: Test C: wheat leaf rust control on wheat seedlings). Details: 10 ppm, sprayed to run-off on wheat seedlings, inoculated the following day; 100 = 100% disease control, 0 = no control.
Type: in vivo
Excerpt: General protocol for preparing test suspensions for Tests A-C: the test compounds were first dissolved in acetone in an amount equal to 3% of the final volume and then suspended at the desired concentration (in ppm) in acetone and purified water (50/50 mix by volume) containing 250 ppm of the surfactant PEG400 (polyhydric alcohol esters). The resulting test suspensions were then used in Tests A-C. The test solution was sprayed to the point of run-off on wheat seedlings. The following day the seedlings were inoculated with a spore suspension of Puccinia recondita f. sp. tritici (the causal agent of wheat leaf rust) and incubated in a saturated atmosphere at 20° C. for 24 h, and then moved to a growth chamber at 20° C. for 6 days, after which time disease ratings were made. Results for Tests A-C are given in Table A. In the Table, a rating of 100 indicates 100% disease control and a rating of 0 indicates no disease control (relative to the controls). A dash (-) indicates the compound was not tested.

`C#CCN(C)C(=O)OCc1ccc(-c2noc(C(F)(F)F)n2)cc1` [Compound 32] and `CCN(CC)C(=O)OCc1ccc(-c2noc(C(F)(F)F)n2)cc1` [Compound 53] are the same in “Test C disease control rating” value: 68% for the first, 68% for the second.

First: O=C(OC(c1ccc(-c2noc(C(F)(F)F)n2)cc1)c1cccc(Cl)c1)n1ccnc1 (stereo not drawn) [Compound 126]
Second: O=C(Nc1cccnc1)OCc1ccc(-c2noc(C(F)(F)F)n2)cc1 [Compound 22]
The “Test C disease control rating” value of the first is lower: 0% for the first, 97% for the second.

First: C#CCNC(=O)OC(C)c1ccc(-c2noc(C(F)(F)F)n2)s1 (stereo not drawn) [Compound 61]
Second: CCCNC(=O)OC(C)c1ccc(-c2noc(C(F)(F)F)n2)s1 (stereo not drawn) [Compound 74]
The “Test C disease control rating” value of the first is higher: 100% for the first, 98% for the second.

Going from `COC(=O)c1ccc(CNC(=O)OC(C)c2ccc(-c3noc(C(F)(F)F)n3)cc2)cc1` (racemic) [Compound 25] to `C=CCNC(=O)OCc1ccc(-c2noc(C(F)(F)F)n2)cc1` [Compound 51], the “Test C disease control rating” value rises from 26% to 99%.

First: NC(=O)OCCc1ccc(-c2noc(C(F)(F)F)n2)cc1 [Compound 41]
Second: CN(C)C(=O)OCCCc1ccc(-c2noc(C(F)(F)F)n2)cc1 [Compound 28]
The “Test C disease control rating” value of the first is higher: 99% for the first, 40% for the second.

Compared with `C#CCNC(=O)OCCCc1ccc(-c2noc(C(F)(F)F)n2)cc1` [Compound 30], `CC(C)(C)OC(=O)NN=Cc1ccc(-c2noc(C(F)(F)F)n2)cc1` [Compound 106] is lower in “Test C disease control rating” value: 99% for the first, 68% for the second.

Same assay, conditions: 50 ppm, sprayed to run-off on wheat seedlings, inoculated the following day; 100 = 100% disease control, 0 = no control

`COC(=O)NN=Cc1ccc(-c2noc(C(F)(F)F)n2)s1` [Compound 141] and `C#CCCNC(=O)OCCc1ccc(-c2noc(C(F)(F)F)n2)cc1` [Compound 66] are the same in “Test C disease control rating” value: 100% for the first, 100% for the second.

For `CCOC(=O)c1ccc(NC(=O)OCCCc2ccc(-c3noc(C(F)(F)F)n3)cc2)cc1` [Compound 60], the “Test C disease control rating” value was 0%.

Same assay, conditions: 250 ppm, sprayed to run-off on wheat seedlings, inoculated the following day; 100 = 100% disease control, 0 = no control

First: NC(=O)OC(c1ccc(-c2noc(C(F)(F)F)n2)cc1)c1cccc(Cl)c1 (stereo not drawn) [Compound 101]
Second: CNC(=O)OC(c1ccc(-c2noc(C(F)(F)F)n2)cc1)c1ccccc1C (stereo not drawn) [Compound 129]
The “Test C disease control rating” value of the first is lower: 99% for the first, 100% for the second.

Each molecule was assayed on Phakopsora pachyrhizi (assay: Test A: Asian soybean rust control on soybean seedlings). Details: 10 ppm, sprayed to run-off on soybean seedlings, inoculated the following day; 100 = 100% disease control, 0 = no control.
Type: in vivo
Excerpt: General protocol for preparing test suspensions for Tests A-C: the test compounds were first dissolved in acetone in an amount equal to 3% of the final volume and then suspended at the desired concentration (in ppm) in acetone and purified water (50/50 mix by volume) containing 250 ppm of the surfactant PEG400 (polyhydric alcohol esters). The resulting test suspensions were then used in Tests A-C.
The test solution was sprayed to the point of run-off on soybean seedlings. The following day the seedlings were inoculated with a spore suspension of Phakopsora pachyrhizi (the causal agent of Asian soybean rust) and incubated in a saturated atmosphere at 22° C. for 24 h, and then moved to a growth chamber at 22° C. for 8 days, after which time visual disease ratings were made.
Results for Tests A-C are given in Table A. In the Table, a rating of 100 indicates 100% disease control and a rating of 0 indicates no disease control (relative to the controls). A dash (-) indicates the compound was not tested.

`C#CCN(C)C(=O)OCc1ccc(-c2noc(C(F)(F)F)n2)cc1` [Compound 32] and `CCN(CC)C(=O)OCc1ccc(-c2noc(C(F)(F)F)n2)cc1` [Compound 53] are the same in “Test A disease control rating” value: 100% for the first, 100% for the second.

`O=C(OC(c1ccc(-c2noc(C(F)(F)F)n2)cc1)c1cccc(Cl)c1)n1ccnc1` (stereo not drawn) [Compound 126] and `O=C(Nc1cccnc1)OCc1ccc(-c2noc(C(F)(F)F)n2)cc1` [Compound 22] are the same in “Test A disease control rating” value: 99% for the first, 99% for the second.

`C#CCNC(=O)OC(C)c1ccc(-c2noc(C(F)(F)F)n2)s1` (stereo not drawn) [Compound 61] and `CCCNC(=O)OC(C)c1ccc(-c2noc(C(F)(F)F)n2)s1` (stereo not drawn) [Compound 74] are the same in “Test A disease control rating” value: 100% for the first, 100% for the second.

`COC(=O)c1ccc(CNC(=O)OC(C)c2ccc(-c3noc(C(F)(F)F)n3)cc2)cc1` (racemic) [Compound 25] and `C=CCNC(=O)OCc1ccc(-c2noc(C(F)(F)F)n2)cc1` [Compound 51] are the same in “Test A disease control rating” value: 100% for the first, 100% for the second.

`NC(=O)OCCc1ccc(-c2noc(C(F)(F)F)n2)cc1` [Compound 41] and `CN(C)C(=O)OCCCc1ccc(-c2noc(C(F)(F)F)n2)cc1` [Compound 28] are the same in “Test A disease control rating” value: 100% for the first, 100% for the second.

Going from `C#CCNC(=O)OCCCc1ccc(-c2noc(C(F)(F)F)n2)cc1` [Compound 30] to `CC(C)(C)OC(=O)NN=Cc1ccc(-c2noc(C(F)(F)F)n2)cc1` [Compound 106], the “Test A disease control rating” value falls from 100% to 97%.

Same assay, conditions: 50 ppm, sprayed to run-off on soybean seedlings, inoculated the following day; 100 = 100% disease control, 0 = no control

`COC(=O)NN=Cc1ccc(-c2noc(C(F)(F)F)n2)s1` [Compound 141] and `C#CCCNC(=O)OCCc1ccc(-c2noc(C(F)(F)F)n2)cc1` [Compound 66] are the same in “Test A disease control rating” value: 100% for the first, 100% for the second.

For `CCOC(=O)c1ccc(NC(=O)OCCCc2ccc(-c3noc(C(F)(F)F)n3)cc2)cc1` [Compound 60], the “Test A disease control rating” value was 0%.

Same assay, conditions: 250 ppm, sprayed to run-off on soybean seedlings, inoculated the following day; 100 = 100% disease control, 0 = no control

`NC(=O)OC(c1ccc(-c2noc(C(F)(F)F)n2)cc1)c1cccc(Cl)c1` (stereo not drawn) [Compound 101] and `CNC(=O)OC(c1ccc(-c2noc(C(F)(F)F)n2)cc1)c1ccccc1C` (stereo not drawn) [Compound 129] are the same in “Test A disease control rating” value: 100% for the first, 100% for the second.

The molecules below were run on Zymoseptoria tritici (assay: Test B: wheat leaf blotch control on wheat seedlings). Details: 250 ppm (incl. values marked * = tested at 250 ppm), sprayed to run-off on wheat seedlings, inoculated the following day; 100 = 100% disease control, 0 = no control.
Type: in vivo
Excerpt: General protocol for preparing test suspensions for Tests A-C: the test compounds were first dissolved in acetone in an amount equal to 3% of the final volume and then suspended at the desired concentration (in ppm) in acetone and purified water (50/50 mix by volume) containing 250 ppm of the surfactant PEG400 (polyhydric alcohol esters). The resulting test suspensions were then used in Tests A-C. The test solution was sprayed to the point of run-off on wheat seedlings. The following day the seedlings were inoculated with a spore suspension of Zymoseptoria tritici (the causal agent of wheat leaf blotch) and incubated in a saturated atmosphere at 24° C. for 48 h, and then moved to a growth chamber at 20° C. for 17 days, after which time disease ratings were made. Results for Tests A-C are given in Table A. In the Table, a rating of 100 indicates 100% disease control and a rating of 0 indicates no disease control (relative to the controls). A dash (-) indicates the compound was not tested.

Going from `NC(=O)OC(c1ccc(-c2noc(C(F)(F)F)n2)cc1)c1cccc(Cl)c1` (stereo not drawn) [Compound 101] to `CNC(=O)OC(c1ccc(-c2noc(C(F)(F)F)n2)cc1)c1ccccc1C` (stereo not drawn) [Compound 129], the “Test B disease control rating” value falls from 90% to 74%.

For `C#CCN(C)C(=O)OCc1ccc(-c2noc(C(F)(F)F)n2)cc1` [Compound 32], the “Test B disease control rating” value was 0* %.
In the case of `COC(=O)NN=Cc1ccc(-c2noc(C(F)(F)F)n2)s1` [Compound 141], the “Test B disease control rating” value is reported as 93* %.
With `O=C(OC(c1ccc(-c2noc(C(F)(F)F)n2)cc1)c1cccc(Cl)c1)n1ccnc1` (stereo not drawn) [Compound 126] the “Test B disease control rating” value was 88* %.
